Consider 3 compounds from patent publication US10556008B2, “Methods of treatment of keloid using an anti-VEGF agent” (priority 2012, dated 2020).

For assay [1] the following is noted: commercially available topical steroids (skin); cited from earlier work.
Assay [2] has as its system pterygium recurrence. Description: Treatment of pterygium recurrence after pterygiectomy with bevacizumab, with or without combination therapy (Patients 1-5). To be noted: for Time without recurrence of pterygium: steroid and NSAID; for No pterygium regrowth observed as of (time after surgery): after third surgical removal and conjunctival grafting; for No pterygium regrowth observed as of (time after surgery) / No regrowth of pterygium observed as of (time after surgery): bevacizumab injections, NSAID eye drops; for No regrowth of pterygium observed as of (time after surgery): steroid eye drops. The class given is in vivo, human. The source says: A topical anesthetic (proparacaine 0.5% eye drops or Alcaine manufactured by Alcon Laboratories Inc.) was applied to the eye following recent pterygiectomy (from ˜5 days to 2 months following surgery). The patients were examined to identify vascular growth on eye conjunctiva. […] If blood was present (indicating presence of blood vessel), the syringe needle was withdrawn. […] If bleeding occurred (e.g., in the form of subconjunctival or subcutaneous hematoma), tamponade with Q-Tips® was performed until bleeding stopped; then injection was resumed.
Anti-inflammatory steroid drops (prednisolone acetate 1% (Allergan)) were given for 6 weeks with frequency range from once a day to 4 times a day (every 6 hours) to every hour (24 drops/day). NSAID eye drops (Diclofenac 0.1% (Bausch and Lomb)) drops (1 mg/mL to 100 mg/mL) were given multiple times, 4 times a day every 6 hours for 3 to 6 months.
Patients were followed up to monitor for appearance of new blood vessel growth in the eye.
Five patients (Patients 1-5) underwent surgery to remove primary pterygium (pterygiectomy) from the cornea of one or both eyes followed by conjunctival grafting were treated as described below.

Assay [3] has as its system recurrent pterygium. To be noted: bevacizumab not as part of the combination therapy; temporarily = e.g. 6 months or less; cited from earlier work.

Entries after “also recorded” stand apart in the source; their conditions may differ.

Take `CC(=O)OCC(=O)[C@@]12OC3(CCCC3)O[C@@H]1C[C@H]1[C@@H]3CCC4=CC(=O)C=C[C@]4(C)[C@@]3(F)[C@@H](O)C[C@@]12C` [Amcinonide]: the Potency entry in assay [1] was “High”.

`CCCCC(=O)O[C@]1(C(=O)CO)[C@@H](C)C[C@H]2[C@@H]3CCC4=CC(=O)C=C[C@]4(C)[C@@]3(F)[C@@H](O)C[C@@]21C` [Betamethasone valerate]: the Potency entry in assay [1] is “Medium-Low”.

Consider “Bevacizumab: 149-Kd full length humanized anti-vascular endothelial growth factor (anti-VEGF) antibody”, for which the “Time without recurrence of pterygium” value in assay [2] (FIG. 2 (Patient 2), combination therapy of bevacizumab) is listed as greater than 8 months; in assay [2] (FIG. 4 (Patient 4), combination therapy of bevacizumab), greater than 9 months; in assay [2] (FIG. 5 (Patient 5), combination therapy of bevacizumab) it was greater than 3 months; in assay [2] (FIGS. 3A, 3B (Patient 3), combination therapy of bevacizumab) it was greater than 6 months. For the same compound, the “Pterygium Recurrence” value was “No” in assay [2] (Patient 1, Right eye, bevacizumab + steroid (injected and/or eye drops) + topical NSAID eye drops); “No” in assay [2] (Patient 2, Left eye, bevacizumab + steroid (injected and/or eye drops) + topical NSAID eye drops); “completely regrew and Yes” in assay [2] (Patient 3 (number not printed in row), Left Eye, bevacizumab + steroid (Kenalog injection), no NSAID); “No” in assay [2] (Patient 3 (number not printed in row), Right Eye, bevacizumab + steroid + topical NSAID eye drops); “No” in assay [2] (Patient 4, Right Eye, bevacizumab + steroid + topical NSAID eye drops); “No” in assay [2] (Patient 5, Right Eye, bevacizumab + steroid + topical NSAID eye drops). Further, the “No pterygium regrowth observed as of (time after surgery)” value is listed as “about 520 days” in assay [2] (Patient 1 right eye, bevacizumab+Kenalog injection); “about 240 days” in assay [2] (Patient 2 left eye, bevacizumab and Kenalog injections). Moreover, the “Pterygium recurrence after bevacizumab injection alone” value in assay [2] (Patient 2 left eye, single bevacizumab injection on Day 17 after second surgical removal, no steroid or NSAID) is “further recurrence of the pterygium”. In addition, the “No regrowth of pterygium observed as of (time after surgery)” value in assay [2] (Patient 3 right eye, after surgical removal and amniotic membrane grafting) is “about 130 days”; in assay [2] (Patient 4 right eye, after first surgical procedure, bevacizumab and Kenalog injections), “about 250 days”. Besides, the “Pterygium regrowth (overall conclusion)” value in assay [2] (combination therapy of bevacizumab, anti-inflammatory steroid (injected or topical) and topical NSAID, Patients 1-5) is “inhibited”. Further, in assay [2] (combination therapy of bevacizumab, anti-inflammatory steroid and topical NSAID vs bevacizumab alone), the “Combination therapy compared with bevacizumab alone” value was “superior”. In assay [3], the “Effect on recurrent pterygium reported in the literature” value was “not effective or only temporarily effective; also recorded: temporary treatment”.
